Experimental data from US3980703A, “Extraction of carboxylic acids from dilute aqueous solutions” (The Dow Chemical Company, priority 1975, dated 1976).

Legend:
Type in all cases: physicochemical
[1] = Extraction of acetic acid from 18% aqueous NaCl with polar extractants, distribution coefficient by radiometric counting (Example 1); details: 1920 ppm acetic acid in 18% aqueous NaCl, equal volumes, 30 min
Excerpt: (§1) A trace quantity of radioactive carbon-14 labeled acetic acid was included. Portions of this solution were shaken for thirty minutes with equal volumes of extractant solutions having the compositions set out in the following table. The phases were allowed to disengage, separated and their relative acetic acid concentrations determined by radiometric counting in a scintillation counter. The distribution coefficient (ratio of acetic acid concentrations in organic and aqueous phase) for each extraction is also given in the table.

[2] = Extraction of acetic acid with TOPO solutions, distribution coefficient (Example 2); details: about 0.025 molar acid
Excerpt: as §1, with “A solution of 1920 ppm (approximately 0.2 percent) of acetic acid in 18% aqueous NaCl was made up. A” for “A”
(§2) In the manner of Example 1, about 0.025 molar aqueous solutions of acetic, glycolic and lactic acids were extracted with equal volumes of TOPO (trioctyl phosphine oxide) solutions in kerosene or Chevron 3.

[3] = Extraction of glycolic acid with TOPO solutions, distribution coefficient (Example 2); details: for Distribution Coefficient For: Glycolic: about 0.025 molar acid
Excerpt: as §1, with “A solution of 1920 ppm (approximately 0.2 percent) of acetic acid in 18% aqueous NaCl was made up. A” for “A”
as §2

[4] = Extraction of lactic acid with TOPO solutions, distribution coefficient (Example 2); details: about 0.025 molar acid
Excerpt: as §1, with “A solution of 1920 ppm (approximately 0.2 percent) of acetic acid in 18% aqueous NaCl was made up. A” for “A”
as §2

[5] = Extraction of acrylic acid with tetra (n-butyl) urea, distribution coefficient by titration (Example 3); details: 28% extractant in cyclohexane; 1.9% acrylic acid in water; equal volumes
Excerpt: (§3) A 1.9% solution of acrylic acid in water was equilibrated with an equal volume of a 28% solution of tetra-(n-butyl) urea in cyclohexane. […] A similar experiment with 0.2% acetic acid in 18% sodium chloride as the aqueous phase, and 0.5 M tetrabutyl urea in Chevron 25 as the extractant, gave a distribution coefficient of 0.40.

[6] = Extraction of acetic acid with tetra (n-butyl) urea, distribution coefficient (Example 3); details: 0.5 M extractant in Chevron 25; 0.2% acetic acid in 18% sodium chloride
Excerpt: as §3

[7] = 0.2 M TOPO in kerosene, aqueous phase 1 Molar NaCl
[8] = 0.5 M TOPO in Chevron 3, aqueous phase 1 Molar NaCl
[9] = 0.5 M TOPO in Chevron 3, aqueous phase water

CCCCCCCCP(=O)(CCCCCCCC)CCCCCCCC [Trioctyl phosphine oxide, trioctyl phosphine oxide]
Distribution coefficient (ratio of acetic acid concentrations in organic and aqueous phase) ([1]; 0.5 M extractant in Chevron 25): 6.1 | Distribution Coefficient For: Acetic [2, 7]: 1.46 | Distribution Coefficient For: Acetic [2, 8]: 3.2 | Distribution Coefficient For: Acetic [2, 9]: 2.8 | Distribution Coefficient For: Glycolic [3, 7]: 0.13 | Distribution Coefficient For: Glycolic [3, 8]: 0.39 | Distribution Coefficient For: Glycolic [3, 9]: 0.35 | Distribution Coefficient For: Lactic [4, 7]: 0.40 | Distribution Coefficient For: Lactic [4, 8]: 1.4 | Distribution Coefficient For: Lactic [4, 9]: 1.02

O=C(O)CO [glycolic acid]
extraction effectiveness of glycolic acid relative to acetic and lactic acids ([3]; TOPO solutions in kerosene or Chevron 3): much less effectively extracted than acetic and lactic acids

CCCCN(CCCC)C(=O)N(CCCC)CCCC [tetra-(n-butyl) urea]
distribution coefficient for the acrylic acid (organic/aqueous) [5]: 1.05 | distribution coefficient (acetic acid) [6]: 0.40

CCCC[S+]([O-])CCCC [Di(n-butyl) sulfoxide]
Distribution coefficient (ratio of acetic acid concentrations in organic and aqueous phase) ([1]; 0.1 M extractant in Chevron 25): 0.18 | Distribution coefficient (ratio of acetic acid concentrations in organic and aqueous phase) ([1]; 0.5 M extractant in Chevron 25): 1.00
